± gives the standard deviation of the averaged measurements.
Compound: CS(=O)(=O)c1ccc(C(=O)Nc2ccc(Cl)c(-c3ccccn3)c2)c(Cl)c1 [VISMODEGIB]
Assay: surviving fraction relative to DMSO-only wells; higher = less growth inhibition
Conditions: exposure time: 5 days
In short: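 In 384-well plates, 250–500 log-phase tumour cells per well were given 24 hours before five days of continuous exposure to inhibitors at 0.5, 1, 5, 10, 50, 100, 500 and 1000 nM. Surviving fraction is luminescence from CellTiter-Glo, normalised to the median of wells containing DMSO alone. Reading took place after 10 minutes at room temperature.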

Test System	surviving fraction (0.5 nM)	surviving fraction (1 nM)	surviving fraction (5 nM)	surviving fraction (10 nM)	surviving fraction (50 nM)	surviving fraction (100 nM)	surviving fraction (500 nM)	surviving fraction (1000 nM)
SUM44 BREAST	0.945 ± 0.033	0.951 ± 0.048	0.994 ± 0.017	0.934 ± 0.02	0.929 ± 0.051	0.9713 ± 0.0095	0.924 ± 0.14	0.876 ± 0.055
MDAMB134 BREAST	0.848 ± 0.089	0.886 ± 0.14	0.878 ± 0.057	0.915 ± 0.062	0.687 ± 0.12	0.717 ± 0.093	0.625 ± 0.024	0.662 ± 0.11
MHM BONE	0.978 ± 0.04	1.018 ± 0.0098	1.04 ± 0.035	1.02 ± 0.027	1.04 ± 0.015	1.05 ± 0.017	1.04 ± 0.008	1.085 ± 0.0059
HCT15 LARGE INTESTINE	0.966 ± 0.01	1.04 ± 0.052	0.998 ± 0.033	1.02 ± 0.072	0.931 ± 0.034	1.01 ± 0.048	0.9417 ± 0.0025	1.03 ± 0.033
VCAP PROSTATE	1.04 ± 0.046	1 ± 0.11	1.1 ± 0.18	1.13 ± 0.22	0.905 ± 0.033	1.08 ± 0.12	0.914 ± 0.066	0.981 ± 0.1
HCC78 LUNG	1.08 ± 0.11	0.941 ± 0.1	0.982 ± 0.14	1.11 ± 0.14	1.1 ± 0.21	1.32 ± 0.2	1.04 ± 0.13	0.934 ± 0.19
SUM149.B1*.S BREAST	0.992 ± 0.064	0.971 ± 0.056	0.981 ± 0.033	0.987 ± 0.039	0.922 ± 0.051	0.988 ± 0.0033	0.9072 ± 0.0081	0.913 ± 0.054
NY BONE	0.955 ± 0.018	0.968 ± 0.033	0.977 ± 0.018	1.06 ± 0.027	0.993 ± 0.025	0.996 ± 0.016	0.932 ± 0.058	1.01 ± 0.041
CHLA90 AUTONOMIC GANGLIA	0.923 ± 0.084	0.949 ± 0.06	0.962 ± 0.056	1.01 ± 0.062	0.914 ± 0.079	0.925 ± 0.013	0.92 ± 0.028	0.953 ± 0.041
SAOS2 BONE	1.11 ± 0.052	1.097 ± 0.0075	1.08 ± 0.059	1.099 ± 0.0081	0.834 ± 0.082	0.954 ± 0.052	0.85 ± 0.036	0.916 ± 0.055
SNU475 LIVER	0.959 ± 0.046	0.946 ± 0.057	0.967 ± 0.019	0.982 ± 0.0087	0.884 ± 0.032	0.89 ± 0.03	0.869 ± 0.024	0.902 ± 0.012
HSSYII SYNOVIAL	0.894 ± 0.023	0.931 ± 0.038	0.904 ± 0.078	0.906 ± 0.037	0.812 ± 0.027	0.831 ± 0.03	0.795 ± 0.026	0.771 ± 0.014
LNCAP PROSTATE	1.01 ± 0.17	0.95 ± 0.15	1.01 ± 0.13	1.02 ± 0.21	1.14 ± 0.11	1.08 ± 0.19	1.13 ± 0.13	1.08 ± 0.12
SCC90 HEADNECK	0.824 ± 0.014	0.945 ± 0.051	0.908 ± 0.092	1.01 ± 0.023	0.848 ± 0.026	0.84 ± 0.053	0.841 ± 0.015	0.881 ± 0.029
HOSMNG BONE	0.972 ± 0.12	0.993 ± 0.15	0.942 ± 0.095	0.906 ± 0.067	0.942 ± 0.15	0.991 ± 0.093	1.02 ± 0.23	1.05 ± 0.16
JURKAT HAEMATOPOIETIC AND LYMPHOID TISSUE	1.09 ± 0.0025	1.09 ± 0.017	1.06 ± 0.017	1.1 ± 0.019	0.99 ± 0.016	1.04 ± 0.026	1.02 ± 0.032	1.05 ± 0.017

Test System	surviving fraction (0.5 nM)	surviving fraction (1 nM)	surviving fraction (5 nM)	surviving fraction (10 nM)	surviving fraction (50 nM)	surviving fraction (100 nM)	surviving fraction (500 nM)	surviving fraction (1000 nM)
143B BONE	0.945 ± 0.063	0.98 ± 0.047	0.932 ± 0.1	0.993 ± 0.069	0.966 ± 0.042	0.965 ± 0.013	1.01 ± 0.046	1.01 ± 0.057
SG27 HEADNECK	0.942 ± 0.013	0.974 ± 0.13	1 ± 0.062	0.962 ± 0.071	0.933 ± 0.039	0.961 ± 0.052	0.9 ± 0.052	1.03 ± 0.13
T47D BREAST	0.993 ± 0.034	0.965 ± 0.049	1.01 ± 0.025	0.988 ± 0.012	0.99 ± 0.035	1.07 ± 0.015	0.983 ± 0.013	0.989 ± 0.025
MFM223 BREAST	1.07 ± 0.11	1.1 ± 0.021	1.05 ± 0.058	1.14 ± 0.035	0.841 ± 0.08	0.875 ± 0.081	0.901 ± 0.068	0.853 ± 0.063
SCC47 HEADNECK	0.968 ± 0.064	1 ± 0.07	0.992 ± 0.044	1.04 ± 0.07	0.892 ± 0.026	0.963 ± 0.026	0.9167 ± 0.004	0.954 ± 0.016
HELA CERVIX	1 ± 0.046	1.05 ± 0.052	0.9757 ± 0.0083	1.02 ± 0.07	1.0558 ± 0.001	1.14 ± 0.041	1.04 ± 0.058	1.15 ± 0.019
MDAMB231 BREAST	0.9193 ± 0.003	0.942 ± 0.018	0.95 ± 0.019	0.96 ± 0.02	0.884 ± 0.014	0.9527 ± 0.0036	0.85 ± 0.025	0.8868 ± 0.0044
PCI30 HEADNECK	0.911 ± 0.028	0.956 ± 0.07	0.96 ± 0.04	0.947 ± 0.065	0.898 ± 0.079	0.949 ± 0.017	0.844 ± 0.077	0.876 ± 0.043
RDES SOFT TISSUE	1.06 ± 0.088	1.1 ± 0.047	1.11 ± 0.22	1.16 ± 0.034	0.677 ± 0.3	0.83 ± 0.34	0.761 ± 0.18	0.717 ± 0.32
SCC003 HEADNECK	0.956 ± 0.073	0.988 ± 0.029	1.05 ± 0.17	1.06 ± 0.11	0.918 ± 0.082	1.05 ± 0.14	0.852 ± 0.08	0.98 ± 0.056
A549 LUNG	0.979 ± 0.018	0.9893 ± 0.0035	1.01 ± 0.033	1.02 ± 0.045	0.994 ± 0.017	1.06 ± 0.035	1.01 ± 0.032	1.03 ± 0.069
SG28 HEADNECK	1 ± 0.033	0.995 ± 0.042	0.979 ± 0.096	0.921 ± 0.096	0.801 ± 0.043	0.831 ± 0.019	0.837 ± 0.076	0.929 ± 0.099
MDAMB436 BREAST	0.851 ± 0.041	0.865 ± 0.0089	0.873 ± 0.027	0.852 ± 0.071	0.891 ± 0.04	0.915 ± 0.056	0.751 ± 0.013	0.78 ± 0.045
MDAMB157 BREAST	0.901 ± 0.11	0.943 ± 0.098	1.02 ± 0.04	0.966 ± 0.06	1.02 ± 0.11	1.13 ± 0.12	1.01 ± 0.049	0.977 ± 0.061
HT1080 SOFT TISSUE	1.021 ± 0.01	0.971 ± 0.028	1 ± 0.014	0.978 ± 0.03	0.968 ± 0.046	0.991 ± 0.048	0.962 ± 0.024	0.994 ± 0.06
CME SYNOVIAL	1.24 ± 0.088	1.2 ± 0.12	1.2 ± 0.27	1.3 ± 0.16	1.07 ± 0.098	1.12 ± 0.13	1.03 ± 0.17	0.9627 ± 0.0064
